# Source: PMC5025651, “Reprofiled anthelmintics abate hypervirulent stationary-phase Clostridium difficile” (Scientific Reports, 2016)
# Structures can show the parent of a compound that is named as a salt. Where two headings read alike, the source gives them in different places.
# What was measured:
# [1] = tested on: C. difficile isolate 20110742 (ribotype 002); experiment: MIC by broth microdilution; type: cell-based, Clostridium difficile; conditions: Clostridioides difficile; isolate 20110742, ribotype 002; duplicate; read-out: MIC
# [2] = tested on: B. fragilis Strain CL05T00C42; experiment: MIC by broth microdilution; type: cell-based; conditions: Bacteroides fragilis
# [3] = tested on: C. clostridioforme ATCC 25537; experiment: MIC by broth microdilution; type: cell-based, Clostridium clostridioforme; conditions: Clostridium, ATCC25537; C. clostridioforme ATCC 25537; BHIS, anaerobic; duplicate; read-out: MIC
# [4] = tested on: C. difficile isolate 20110961 (ribotype A12); experiment: MIC by broth microdilution; type: cell-based, Clostridium difficile; conditions: Clostridioides difficile; isolate 20110961, ribotype A12; duplicate; read-out: MIC
# [5] = tested on: L. johnsonii Strain 135-1-CHN; experiment: MIC by broth microdilution; type: cell-based; conditions: Lactobacillus johnsonii, STRAIN1351CHN; L. johnsonii 135-1-CHN; CAMHB with 5% laked horse blood, ~48 h; duplicate; read-out: MIC
# [6] = tested on: C. difficile isolate 20110986 (ribotype 078); experiment: MIC by broth microdilution; type: cell-based, Clostridium difficile; conditions: Clostridioides difficile; isolate 20110986, ribotype 078; duplicate; read-out: MIC
# 16 C. difficile isolates = experiment: MIC by broth microdilution, summary over 16 C. difficile isolates; type: cell-based, Clostridium difficile; conditions: n = 2; for MIC50 / MIC90: Clostridioides difficile; for MIC50: MIC at which 50% of the 16 isolates are inhibited, read-out: MIC50; for MIC90: MIC at which 90% of the 16 isolates are inhibited, read-out: MIC90; for MIC Range: range over 16 C. difficile isolates
# [7] = tested on: C. difficile isolate 20110869 (ribotype 001_072); experiment: MIC by broth microdilution; type: cell-based, Clostridium difficile; conditions: Clostridioides difficile; isolate 20110869, ribotype 001_072; duplicate; read-out: MIC
# P. aeruginosa PAO1 = experiment: MIC by broth microdilution; type: cell-based; conditions: Pseudomonas aeruginosa; P. aeruginosa PAO1; CAMHB, aerobic; duplicate; read-out: MIC
# [8] = tested on: C. difficile isolate 20110566 (ribotype 020); experiment: MIC by broth microdilution; type: cell-based, Clostridium difficile; conditions: Clostridioides difficile; isolate 20110566, ribotype 020; duplicate; read-out: MIC
# C. difficile strain 4118 = experiment: Time-kill kinetics against stationary-phase cultures; type: cell-based, Clostridium difficile
# Description: At t = 0, 3, 6 and 24 h, sample aliquots were withdrawn from the treated cultures and bacterial viability was scored by plating serial dilutions on BHIS agar plates. The agar plates were incubated in the anaerobic chamber for 20–24 h at 37 °C. Kinetic experiments were performed at least twice.
# B. subtilis ATCC 6051 = experiment: MIC by broth microdilution; type: cell-based; conditions: Bacillus subtilis, ATCC6051; B. subtilis ATCC 6051; CAMHB, aerobic; duplicate; read-out: MIC
# P. nigrescens ATCC 33563 = experiment: MIC by broth microdilution; type: cell-based; conditions: Prevotella nigrescens, ATCC33563
# [9] = tested on: C. difficile isolate 20121190 (ribotype 126); experiment: MIC by broth microdilution; type: cell-based, Clostridium difficile; conditions: Clostridioides difficile; isolate 20121190, ribotype 126; duplicate; read-out: MIC
# [10] = tested on: C. difficile isolate 20110973 (ribotype 106); experiment: MIC by broth microdilution; type: cell-based, Clostridium difficile; conditions: Clostridioides difficile; isolate 20110973, ribotype 106; duplicate; read-out: MIC
# S. epidermidis 1457 = experiment: MIC by broth microdilution; type: cell-based; conditions: Staphylococcus epidermidis; S. epidermidis 1457; CAMHB, aerobic; duplicate; read-out: MIC
# C. sporogenes ATCC 15579 = experiment: MIC by broth microdilution; type: cell-based; conditions: Clostridium sporogenes, ATCC15579, BHIS, anaerobic, duplicate
# [11] = tested on: C. difficile isolate 20100422 (ribotype 054); experiment: MIC by broth microdilution; type: cell-based, Clostridium difficile; conditions: Clostridioides difficile; isolate 20100422, ribotype 054; duplicate; read-out: MIC
# [12] = tested on: C. difficile strain 4118 (CD4118, ATCC BAA-1870, ribotype 027); experiment: MIC by broth microdilution; type: cell-based, Clostridium difficile; conditions: BHIS broth, anaerobic, 20–24 h, n = 2; for MIC: Clostridioides difficile, ATCCBAA1870, read-out: MIC C. difficile 4118
# [13] = tested on: B. longum subsp. longum Strain 44B; experiment: MIC by broth microdilution; type: cell-based; conditions: Bifidobacterium longum; B. longum subsp. longum 44B; LSM broth, anaerobic; duplicate; read-out: MIC
# L. plantarum ATCC 8014 = experiment: MIC by broth microdilution; type: cell-based; conditions: Lactiplantibacillus plantarum, ATCC8014; L. plantarum ATCC 8014; CAMHB with 5% laked horse blood, ~48 h; duplicate; read-out: MIC
# [14] = tested on: B. breve Strain EX336960VC19; experiment: MIC by broth microdilution; type: cell-based; conditions: Bifidobacterium breve; B. breve EX336960VC19; LSM broth, anaerobic; duplicate; read-out: MIC
# A. baumannii M2 = experiment: MIC by broth microdilution; type: cell-based; conditions: Acinetobacter baumannii; A. baumannii M2; CAMHB, aerobic; duplicate; read-out: MIC
# S. aureus RN4220 = experiment: MIC by broth microdilution; type: cell-based; conditions: Staphylococcus aureus, CAMHB, aerobic, duplicate
# [15] = tested on: C. difficile isolate 20111163 (ribotype 024); experiment: MIC by broth microdilution; type: cell-based, Clostridium difficile; conditions: Clostridioides difficile; isolate 20111163, ribotype 024; duplicate; read-out: MIC
# [16] = tested on: C. difficile isolate 20121412 (ribotype 047); experiment: MIC by broth microdilution; type: cell-based, Clostridium difficile; conditions: Clostridioides difficile; isolate 20121412, ribotype 047; duplicate; read-out: MIC
# [17] = tested on: C. difficile isolate 20100584 (ribotype 014); experiment: MIC by broth microdilution; type: cell-based, Clostridium difficile; conditions: Clostridioides difficile; isolate 20100584, ribotype 014; duplicate; read-out: MIC
# [18] = tested on: L. reuteri Strain CF48-3A; experiment: MIC by broth microdilution; type: cell-based, Lactobacillus reuteri; conditions: Limosilactobacillus reuteri; L. reuteri CF48-3A; CAMHB with 5% laked horse blood, ~48 h; duplicate; read-out: MIC
# P. distasonis ATCC 8503 = experiment: MIC by broth microdilution; type: cell-based; conditions: Parabacteroides distasonis, ATCC8503
# [19] = tested on: C. difficile isolate 20110960 (ribotype 017); experiment: MIC by broth microdilution; type: cell-based, Clostridium difficile; conditions: Clostridioides difficile; isolate 20110960, ribotype 017; duplicate; read-out: MIC
# Hemolysis assay = type: cell-based; conditions: sheep, pH 7.4
# Description: Sheep red blood cells (Innovative Research, Novi, MI, USA) were washed three times with PBS pH 7.4. A 3% cell suspension in PBS (100 μL) was added to test compounds in PBS (100 μL, to a final concentration of 32 μg/mL), and then incubated at 37 °C for 1 h. The plate was centrifuged at 500 × g for 10 min, and supernatants (100 μL) were transferred to a clean 96-well plate. Hemolysis was determined by measuring absorbance at 540 nm, with 1% Triton X-100 as the positive control and 0.5% DMSO in PBS as the negative control. Hemolysis assays were performed in triplicate.
# [20] = tested on: C. difficile isolate 20120016 (ribotype 019); experiment: MIC by broth microdilution; type: cell-based, Clostridium difficile; conditions: Clostridioides difficile; isolate 20120016, ribotype 019; duplicate; read-out: MIC
# [21] = tested on: C. difficile isolate 20110740 (ribotype 018); experiment: MIC by broth microdilution; type: cell-based, Clostridium difficile; conditions: Clostridioides difficile; isolate 20110740, ribotype 018; duplicate; read-out: MIC
SMILES,MIC [1],MIC [3],MIC [4],MIC [5],MIC [6],MIC50 (16 C. difficile isolates),MIC90 (16 C. difficile isolates),MIC Range (16 C. difficile isolates),MIC [7],MIC (P. aeruginosa PAO1),MIC [8],MIC (B. subtilis ATCC 6051),MIC [9],MIC [10],MIC (S. epidermidis 1457),MIC (C. sporogenes ATCC 15579),MIC [11],MIC [12],MIC [13],MIC (L. plantarum ATCC 8014),also measured
Cc1cc(C(C#N)c2ccc(Cl)cc2)c(Cl)cc1NC(=O)c1cc(I)cc(I)c1O (centres unmarked) [Closantel],0.13 to 0.25 µg/mL,4 µg/mL,0.25 µg/mL,32 µg/mL,0.25 µg/mL,0.25 µg/mL,0.25 µg/mL,0.13 to 1 µg/mL,1 µg/mL,> 32 µg/mL,0.25 µg/mL,≤ 0.03 µg/mL,0.25 µg/mL,0.25 µg/mL,≤ 0.03 µg/mL,1 µg/mL,0.25 µg/mL,0.25 µg/mL,16 µg/mL,> 32 µg/mL,"MIC ([2]; B. fragilis CL05T00C42, supplemented Brucella broth, anaerobic, duplicate, read-out: MIC): > 32 µg/mL; log decrease in the number of CFUs (C. difficile strain 4118; 4 × MIC, 24 h, stationary-phase CD4118): 2.2 log; time to eradicate >99.9% of viable cells (C. difficile strain 4118; 16× MIC (rafoxanide 2 μg/mL, closantel 4 μg/mL, compound 8 1 μg/mL), stationary-phase CD4118): 24 h; MIC (P. nigrescens ATCC 33563; P. nigrescens ATCC 33563, supplemented Brucella broth, anaerobic, duplicate, read-out: MIC): 8 µg/mL; MIC [14]: > 32 µg/mL; MIC (A. baumannii M2): > 32 µg/mL; MIC (S. aureus RN4220): 0.25 µg/mL; MIC [15]: 0.13 to 0.25 µg/mL; MIC [16]: 0.125 µg/mL; MIC [17]: 0.25 µg/mL; MIC [18]: 32 µg/mL; MIC (P. distasonis ATCC 8503; P. distasonis ATCC 8503, supplemented Brucella broth, anaerobic, duplicate, read-out: MIC): 16 µg/mL; MIC [19]: 0.13 µg/mL; hemolysis at 1 h, 32 µg/mL (Hemolysis assay): < 1%; MIC [20]: 0.25 µg/mL; MIC [21]: 0.25 µg/mL"
"CN[C@H](CC(C)C)C(=O)N[C@H]1C(=O)N[C@@H](CC(N)=O)C(=O)N[C@H]2C(=O)N[C@H]3C(=O)N[C@H](C(=O)N[C@H](C(=O)O)c4cc(O)cc(O)c4-c4cc3ccc4O)[C@H](O)c3ccc(c(Cl)c3)Oc3cc2cc(c3O[C@@H]2O[C@H](CO)[C@@H](O)[C@H](O)[C@H]2O[C@H]2C[C@](C)(N)[C@H](O)[C@H](C)O2)Oc2ccc(cc2Cl)[C@H]1O [Vancomycin, vancomycin hydrochloride hydrate]",0.5 to 1 µg/mL,0.5 µg/mL,1 µg/mL,0.5 µg/mL,0.5 to 1 µg/mL,1 µg/mL,2 µg/mL,0.5 to 2 µg/mL,1 µg/mL,> 32 µg/mL,0.5 µg/mL,0.13 µg/mL,0.5 µg/mL,2 µg/mL,2 µg/mL,2 µg/mL,1 µg/mL,2 µg/mL,0.25 µg/mL,> 32 µg/mL,"MIC [2]: 32 µg/mL; log killing of CD4118 stationary-phase cells (C. difficile strain 4118; 16× MIC (metronidazole 4 μg/mL, vancomycin 32 μg/mL), up to 24 h): < 3 log; MIC (P. nigrescens ATCC 33563): > 32 µg/mL; MIC C. difficile 4118 [12]: 2 µg/mL; MIC [14]: 0.5 µg/mL; MIC (A. baumannii M2): > 32 µg/mL; MIC (S. aureus RN4220): 1 µg/mL; MIC [15]: 1 µg/mL; MIC [16]: 1 µg/mL; MIC [17]: 0.5 µg/mL; MIC [18]: > 32 µg/mL; MIC (P. distasonis ATCC 8503): > 32 µg/mL; MIC [19]: 0.5 µg/mL; MIC [20]: 0.5 µg/mL; MIC [21]: 1 µg/mL"
